Measurements as given in patent US20220288002A1, “Composition comprising EPA, MA and leucine for improving muscle function” (N.V. Nutricia, priority 2019, published 2022).

System: C2C12 myotubes
Assay: In vitro puromycin incorporation (muscle protein synthesis) in differentiated C2C12 myotubes stimulated with insulin + leucine, Western blot
Type: cell-based, mouse
Description: C2C12 mouse myoblasts are obtained from the American Type Culture Source Collection (no. CRL-1772). Myoblasts are cultured at 37° C. in an atmosphere of 5% CO2 in grown medium consisting of Dulbecco's modified Eagle's medium (DMEM) supplemented with 10% fetal calf serum and antibiotics. Myotube C2C12 differentiation is induced by withdrawing fetal calf serum from confluent cells and adding 10 μg/ml insulin, 5 μg/ml transferrin and 2% horse serum. 8-days-differentiated C2C12 myotubes are treated with medium containing EPA and/or MA for 16 hours. After a 4-hour starvation period, C2C12 myotubes were treated with insulin (100 nM)+Leucine (5 mM) for in total 60 min. A limitation of growing myotubes in vitro is that the cells are not able to produce insulin when administered leucine whereas in vivo the pancreas starts producing insulin when leucine is administered to a subject. Common to this model, to compensate for this limitation, the in vitro experiment requires the separate administration of insulin. […] By western-Blot analyses the level of protein synthesis was analyzed. This gives quantitative information on the incorporation of puromycin which is a measure for intracellular pathways regulating protein synthesis (Akt, mTOR) and/or a direct measure of protein synthesis. […]

## CCCCCCCCCCCCCC(=O)O [MA, myristic acid]
25 μM EPA without MA, or 25 or 50 μM MA without EPA, 16 hours, then insulin (100 nM)+Leucine (5 mM) 60 min, relative to control without stimulation and without fatty acids (indexed at 100)
  puromycin incorporation, individual fatty acid: have an effect on puromycin incorporation
MA without EPA, 25 μM vs 50 μM, insulin + leucine stimulation
  puromycin incorporation, effect of raising MA from 25 μM to 50 μM vs adding 25 μM EPA to 25 μM MA: much smaller effect
